Here are results for 2 molecules from publication PMC6166661 (Neuropeptides, 2018).

Test [1] relates to isoproterenol-stimulated lipolysis. The experiment in a line: Acute effect on isoproterenol-stimulated lipolysis. The class given is in vivo, rat. The settings on record: rats.
The next test concerns C3aR1. The settings on record: ref Cianflone et al., 2003; Murray et al., 2000; cited from earlier work.

For `CC(C)NCC(O)c1ccc(O)c(O)c1` (stereo not drawn) [isoproterenol], in test [1] (constant i.v. infusion 30 ng•min^−1, vs basal), the “change of plasma palmitate concentration during infusion” value is “more than doubled”. The “plasma palmitate concentration at end of experiment, of the initial value” in test [1] (isoproterenol infusion plus saline bolus (control group)) is reported as ~ 75%.

“ASP: des-arginine peptide generated from C3a by cleaving the C-terminal arginine residue (R77)”: the “activity at C3aR1” value in the test on C3aR1 is “inactive”.
